According to patent US6426360B1, “4,5-substituted imidazolyl compounds for the treatment of inflammation” (G D Searle & Co., priority 1994, dated 2002):

How the values were obtained:
[1] = target: T1, Human COX II (Homo sapiens, UniProt P35354); test: COX II activity in vitro (PGE2 ELISA, recombinant enzyme); type: biochemical; details: arachidonic acid 10 μM, pre-incubation 10-20 minutes; read-out: Human COX II ID50
T1 construct: A 2.0 kb fragment containing the coding region of either human or murine COX-I or human or murine COX-II; made in house; host or cells: SF9 insect cells (recombinant baculovirus, transfer vector pVL1393)
T1 sequence (P35354 18-604): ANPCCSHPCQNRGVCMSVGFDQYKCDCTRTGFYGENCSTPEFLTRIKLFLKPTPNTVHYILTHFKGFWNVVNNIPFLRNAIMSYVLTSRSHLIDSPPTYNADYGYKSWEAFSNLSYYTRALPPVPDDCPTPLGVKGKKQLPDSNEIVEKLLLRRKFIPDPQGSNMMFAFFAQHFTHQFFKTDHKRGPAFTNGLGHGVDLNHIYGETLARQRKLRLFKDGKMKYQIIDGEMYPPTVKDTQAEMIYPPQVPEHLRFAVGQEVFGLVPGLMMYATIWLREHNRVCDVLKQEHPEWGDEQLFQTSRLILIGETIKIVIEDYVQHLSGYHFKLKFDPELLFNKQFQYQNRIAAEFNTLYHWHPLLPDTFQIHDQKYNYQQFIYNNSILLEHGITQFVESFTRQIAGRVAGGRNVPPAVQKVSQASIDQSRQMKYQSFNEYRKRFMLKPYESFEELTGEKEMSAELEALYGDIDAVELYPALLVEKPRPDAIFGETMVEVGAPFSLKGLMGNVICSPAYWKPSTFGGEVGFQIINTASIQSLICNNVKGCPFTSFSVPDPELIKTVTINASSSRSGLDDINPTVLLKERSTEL
Procedure: The COX II inhibition activity of the compounds of this invention illustrated in the Examples was determined by the following methods.
(§1) A 2.0 kb fragment containing the coding region of either human or murine COX-I or human or murine COX-II was cloned into a BamH1 site of the baculovirus transfer vector pVL1393 (Invitrogen) to generate the baculovirus transfer vectors for COX-I and COX-II in a manner similar to the method of D. R. O'Reilly et al (Baculovirus Expression Vectors: A Laboratory Manual (1992)). Recombinant baculoviruses were isolated by transfecting 4 μg of baculovirus transfer vector DNA into SF9 insect cells ([…]) along with 200 ng of linearized baculovirus plasmid DNA by the calcium phosphate method. See M. D. Summers and G. E. Smith, A Manual of Methods for Baculovirus Vectors and Insect Cell Culture Procedures, Texas Agric. Exp. Station Bull. 1555 (1987). Recombinant viruses were purified by three rounds of plaque purification and high titer (10E7-10E8 pfu/ml), stocks of virus were prepared. For large scale production, SF9 insect cells were infected in 10 liter fermentors (0.5×10^6/ml) with the recombinant baculovirus stock such that the multiplicity of infection was 0.1. After 72 hours the cells were centrifuged and the cell pellet homogenized in Tris/Sucrose (50 mM: 25%, pH 8.0) containing 1% 3-[(3-cholamidopropyl)dimethylammonio]-1-propanesulfonate (CHAPS). The homogenate was centrifuged at 10,000×G for 30 minutes, and the resultant supernatant was stored at −80° C. before being assayed for COX activity.
(§2) COX activity was assayed as PGE2 formed/μg protein/time using an ELISA to detect the prostaglandin released. CHAPS-solubilized insect cell membranes containing the appropriate COX enzyme were incubated in a potassium phosphate buffer (50 mM, pH 8.0) containing epinephrine, phenol, and heme with the addition of arachidonic acid (10 μM). Compounds were pre-incubated with the enzyme for 10-20 minutes prior to the addition of arachidonic acid. Any reaction between the arachidonic acid and the enzyme was stopped after ten minutes at 37° C./room temperature by transferring 40 μl of reaction mix into 160 μl ELISA buffer and 25 μM indomethacin. The PGE2 formed was measured by standard ELISA technology (Cayman Chemical).

[2] = target: T2, Human COX I (Homo sapiens, UniProt P23219); test: COX I activity in vitro (PGE2 ELISA, recombinant enzyme); type: biochemical; details: arachidonic acid 10 μM, pre-incubation 10-20 minutes; read-out: Human COX I ID50
T2 construct: A 2.0 kb fragment containing the coding region of either human or murine COX-I or human or murine COX-II; made in house; host or cells: SF9 insect cells (recombinant baculovirus, transfer vector pVL1393)
T2 sequence (P23219 24-599): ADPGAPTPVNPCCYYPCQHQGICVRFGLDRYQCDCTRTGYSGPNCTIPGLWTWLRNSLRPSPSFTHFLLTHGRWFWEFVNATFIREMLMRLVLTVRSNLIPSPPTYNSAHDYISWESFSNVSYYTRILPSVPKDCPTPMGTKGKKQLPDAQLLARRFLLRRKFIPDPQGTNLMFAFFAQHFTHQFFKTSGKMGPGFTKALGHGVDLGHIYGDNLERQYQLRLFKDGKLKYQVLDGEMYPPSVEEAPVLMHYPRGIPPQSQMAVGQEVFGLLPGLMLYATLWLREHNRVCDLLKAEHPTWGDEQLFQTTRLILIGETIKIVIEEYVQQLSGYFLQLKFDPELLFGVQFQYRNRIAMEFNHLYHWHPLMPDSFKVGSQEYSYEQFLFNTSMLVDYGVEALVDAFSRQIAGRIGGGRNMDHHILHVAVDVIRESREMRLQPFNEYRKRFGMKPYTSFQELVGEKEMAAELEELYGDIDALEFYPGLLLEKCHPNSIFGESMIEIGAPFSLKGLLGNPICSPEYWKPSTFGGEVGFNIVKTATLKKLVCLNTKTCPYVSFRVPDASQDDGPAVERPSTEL
Procedure: as §1, §2

| Structure (SMILES) | IC50 [1] [µM] | IC50 [2] [µM] | melting point [°C] |
| --- | --- | --- | --- |
| Cc1nc(-c2ccc(S(C)(=O)=O)cc2)c(-c2ccc(F)cc2)[nH]1 [Example 6, 5-(4-Fluorophenyl)-2-methyl-4-(4-methylsulfonylphenyl)-1H-imidazole] | 4.6 | > 100 | – |
| CS(=O)(=O)c1ccc(-c2nc(SCc3ccccc3)[nH]c2-c2ccc(F)cc2)cc1 [Example 8, 2-Benzylthio-5-(4-fluorophenyl)-4-[4-(methylsulfonyl)phenyl]-1H-imidazole] | – | 2.1 | 155 to 156 |
| CS(=O)(=O)c1ccc(-c2nc(C(F)(F)F)[nH]c2-c2ccc(Cl)cc2)cc1 [Example 11, 5-(4-Chlorophenyl)-4-[4-(methylsulfonyl)phenyl]-2-(trifluoromethyl)-1H-imidazole] | 0.4 | 10.4 | – |
| CS(=O)(=O)c1ccc(-c2nc(C(F)(F)F)[nH]c2-c2ccccc2Cl)cc1 [Example 12, 5-(2-Chlorophenyl)-4-[4-(methylsulfonyl)phenyl]-2-(trifluoromethyl)-1H-imidazole] | 1.3 | > 100 | – |
| CS(=O)(=O)c1ccc(-c2nc(C(F)(F)F)[nH]c2-c2ccc(Cl)c(Cl)c2)cc1 [Example 13, 5-(3,4-Dichlorophenyl)-4-[4-(methylsulfonyl)phenyl]-2-(trifluoromethyl)-1H-imidazole] | – | 9.6 | – |
| COc1ccc(-c2[nH]c(C(F)(F)F)nc2-c2ccc(S(C)(=O)=O)cc2)cc1 [Example 15, 5-(4-Methoxyphenyl)-4-[4-(methylsulfonyl)phenyl]-2-(trifluoromethyl)-1H-imidazole] | 2.9 | 5.6 | – |
| NS(=O)(=O)c1ccc(-c2nc(C(F)(F)F)[nH]c2-c2ccc(F)cc2)cc1 [Example 21, 4-[5-(4-Fluorophenyl)-2-(trifluoromethyl)-1H-imidazol-4-yl]benzenesulfonamide] | – | 10.8 | 259 to 260 |
| COc1ccc(-c2nc(C(F)(F)F)[nH]c2-c2ccc(S(C)(=O)=O)cc2)cc1OC [Example 41, 4-(3,4-Dimethoxyphenyl)-5-[4-(methylsulfonyl)phenyl]-2-(trifluoromethyl)-1H-imidazole] | – | – | 221 to 224 |
| COc1ccc(-c2nc(C(F)(F)F)[nH]c2-c2ccc(S(C)(=O)=O)cc2)cc1C [Example 42, 4-(4-Methoxy-3-methylphenyl)-5-[4-(methylsulfonyl)phenyl]-2-(trifluoromethyl)-1H-imidazole] | – | – | 265 to 267 |
| Cn1c(C(F)(F)F)nc(-c2ccc(F)cc2)c1-c1ccc(S(C)(=O)=O)cc1 [Example 45, 4-(4-Fluorophenyl)-1-methyl-5-[4-(methylsulfonyl)phenyl]-2-(trifluoromethyl)-1H-imidazole] | – | – | 193 to 195 |
| Cc1cc(C)cc(-c2[nH]c(C(F)(F)F)nc2-c2ccc(S(C)(=O)=O)cc2)c1 [Example 46, 5-(3,5-Dimethylphenyl)-4-[4-(methylsulfonyl)phenyl]-2-(trifluoromethyl)-1H-imidazole] | – | – | 255 to 257 |
| COc1c(C)cc(-c2[nH]c(C(F)(F)F)nc2-c2ccc(S(C)(=O)=O)cc2)cc1C [Example 52, 5-(3,5-Dimethyl-4-methoxyphenyl)-4-[4-(methylsulfonyl)phenyl]-2-(trifluoromethyl)-1H-imidazole] | – | – | 265 to 267 |
| Cc1cc(Cl)cc(-c2[nH]c(C(F)(F)F)nc2-c2ccc(S(C)(=O)=O)cc2)c1 [Example 54, 5-(3-Chloro-5-methylphenyl)-4-[-(methylsulfonyl)phenyl]-2-(trifluoromethyl)-1H-imidazole] | – | – | 260 to 262 |
| Cc1ccc(-c2[nH]c(C(F)(F)F)nc2-c2ccc(S(C)(=O)=O)cc2)cc1F [Example 56, 5-(3-Fluoro-4-methylphenyl)-4-[4-(methylsulfonyl)phenyl]-2-(trifluoromethyl)-1H-imidazole] | – | – | 251 to 252 |
| COc1ccc(-c2[nH]c(C(F)(F)F)nc2-c2ccc(S(C)(=O)=O)cc2)cc1Cl [Example 57, 5-(3-Chloro-4-methoxyphenyl)-4-[4-(methylsulfonyl)phenyl]-2-(trifluoromethyl)-1H-imidazole] | – | – | 288 to 291 |
| Cc1ccc(-c2[nH]c(C(F)(F)F)nc2-c2ccc(S(C)(=O)=O)cc2)cc1C [Example 61] | – | – | 279 to 284 |

Second part, the molecule after the results:

| IC50 [1] [µM] | IC50 [2] [µM] | melting point [°C] | Structure (SMILES) |
| --- | --- | --- | --- |
| – | – | 202 to 208 | COc1cccc(-c2[nH]c(C(F)(F)F)nc2-c2ccc(S(C)(=O)=O)cc2)c1 [Example 65, 5-(3-Methoxyphenyl)-4-[4-(methylsulfonyl)phenyl]-2-(trifluoromethyl)-1H-imidazole] |
| – | – | 225 to 229 | CS(=O)(=O)c1ccc(-c2nc(C(F)(F)F)[nH]c2-c2cccc(F)c2)cc1 [Example 66, 5-(3-Fluorophenyl)-4-[4-(methylsulfonyl)phenyl]-2-(trifluoromethyl)-1H-imidazole] |
| – | – | 180 to 190 | Cc1ccccc1-c1[nH]c(C(F)(F)F)nc1-c1ccc(S(C)(=O)=O)cc1 [Example 67, 5-(2-Methylphenyl)-4-[4-(methylsulfonyl)phenyl]-2-(trifluoromethyl)-1H-imidazole] |
| – | – | 224 to 226 | CS(=O)(=O)c1ccc(-c2nc(C(F)(F)F)[nH]c2-c2cccc(Cl)c2)cc1 [Example 68, 5-(3-Chlorophenyl)-4-[4-(methylsulfonyl)phenyl]-2-(trifluoromethyl)-1H-imidazole] |
| – | – | 250 to 253 | CS(=O)(=O)c1ccc(-c2nc(C(F)(F)F)[nH]c2C2CCCCC2)cc1 [Example 69, 5-(Cyclohexyl)-4-[4-(methylsulfonyl)phenyl]-2-(trifluoromethyl)-1H-imidazole] |
| – | – | 261 to 264 | Cc1cc(-c2[nH]c(C(F)(F)F)nc2-c2ccc(S(C)(=O)=O)cc2)ccc1Cl [Example 71, 5-(4-Chloro-3-methylphenyl)-4-[4-(methylsulfonyl)phenyl]-2-(trifluoromethyl)-1H-imidazole] |
| – | – | 273 to 275 | Cc1ccc(-c2[nH]c(C(F)(F)F)nc2-c2ccc(S(C)(=O)=O)cc2)cc1Cl [Example 73, 5-(3-Chloro-4-methylphenyl)-4-[4-(methylsulfonyl)phenyl]-2-(trifluoromethyl)-1H-imidazole] |
| – | – | 210 to 212 | CS(=O)(=O)c1ccc(-c2nc(C(F)(F)F)[nH]c2C2CCCC2)cc1 [Example 75, 5-(Cyclopentyl)-4-[4-(methylsulfonyl)phenyl]-2-(trifluoromethyl)-1H-imidazole] |
| – | – | 230 to 232 | CS(=O)(=O)c1ccc(-c2nc(C(F)(F)F)[nH]c2-c2ccsc2)cc1 [Example 76, 4-[4-(Methylsulfonyl)phenyl]-5-(3-thiophenyl)-2-(trifluoromethyl)-1H-imidazole] |
| – | – | 192 to 196 | Cc1c(F)cccc1-c1[nH]c(C(F)(F)F)nc1-c1ccc(S(C)(=O)=O)cc1 [Example 77, 5-(3-Fluoro-2-methylphenyl)-4-[4-(methylsulfonyl)phenyl]-2-(trifluoromethyl)-1H-imidazole] |
| – | – | 233 to 234 | COc1cc(-c2[nH]c(C(F)(F)F)nc2-c2ccc(S(C)(=O)=O)cc2)ccc1Cl [Example 78, 5-(4-Chloro-3-methoxyphenyl)-4-[4-(methylsulfonyl)phenyl]-2-(trifluoromethyl)-1H-imidazole] |
| – | – | 263.2 | CS(=O)(=O)c1ccc(-c2nc(C(=O)Cc3ccccc3)[nH]c2-c2ccc(F)cc2)cc1 [Example 86, 1-[5-(4-Fluorophenyl)-4-[4-(methylsulfonyl)phenyl]-1H-imidazol-2-yl]-2-phenylethanone] |
